The record followed here is article PMC8578206, “Green Leaf Volatile-Burst in Selaginella moellendorffii” (Frontiers in Plant Science, 2021).

The target of the test is T1, SmHPL1b (Selaginella moellendorffii, UniProt D8RF82).
T1 construct: gene CYP74L1; full ORF from genomic DNA in pET100/D-TOPO (tag kept), E. coli BL21 Star (DE3) membrane fraction
As to the kind of experiment: decrease in absorbance at […] nm. It counts as biochemical. Conditions: E. coli membrane fraction, MES-KOH pH 6.0, 25 °C (methods); optimum pH 5.5.

The Km is the substrate concentration at which the rate is half of its maximum.

T1 sequence (D8RF82 entry or part of it): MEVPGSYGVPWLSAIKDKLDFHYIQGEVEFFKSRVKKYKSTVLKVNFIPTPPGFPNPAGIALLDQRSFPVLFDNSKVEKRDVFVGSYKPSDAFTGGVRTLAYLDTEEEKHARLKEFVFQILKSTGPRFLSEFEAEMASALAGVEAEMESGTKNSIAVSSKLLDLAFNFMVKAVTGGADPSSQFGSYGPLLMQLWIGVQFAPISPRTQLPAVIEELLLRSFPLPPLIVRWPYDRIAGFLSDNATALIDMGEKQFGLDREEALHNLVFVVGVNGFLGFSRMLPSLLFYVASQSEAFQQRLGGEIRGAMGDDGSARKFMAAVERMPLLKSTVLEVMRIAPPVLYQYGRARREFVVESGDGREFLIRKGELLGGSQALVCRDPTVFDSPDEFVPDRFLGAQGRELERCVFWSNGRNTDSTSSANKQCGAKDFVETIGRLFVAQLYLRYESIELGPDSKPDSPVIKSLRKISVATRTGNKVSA

`CC/C=C\C[C@@H](/C=C/C=C\CCCCCCCC(=O)O)OO` [13HPOT, (9Z,11E,15Z)-13-hydroperoxyoctadeca-9,11,15-trienoic acid]: the Km was found to be 31.4 µM.
